Results taken from patent US10494404B2, “Quinolinium conjugates of cyclosporin” (priority 2014, dated 2019).
Entries after “also recorded” stand apart in the source; their conditions may differ.

Columns and labels:
HepG2 cells = experiment: HepG2 high content screening of cell health markers; assay type: cell-based; details: HepG2, 72 h exposure
Procedure: HepG2 cells were plated on 96-well tissue culture treated black walled clear bottomed polystyrene plates, 100 μL, (3000 cells) per well. After 24 hours the cells were dosed with the test compounds at a range of concentrations. At the end of the incubation period, the cells were loaded with the relevant dye/antibody for each cell health markers set out below. The plates were then scanned using an automated fluorescent cellular imager [ArrayScan VTI (Thermo Scientific Cellomics)].
The following cell health markers were measured: • a. Cell count—a decreasing number of cells per well indicates toxicity due to necrosis, apoptosis or a reduction in cellular proliferation. • b. Nuclear area—an increase in nuclear size indicates necrosis or G2 cell cycle arrest and a decrease indicates apoptosis. • c. DNA structure—an increase in DNA structure indicates chromosomal instability and DNA fragmentation. • d. […]
HepG2 cells were seeded in black, clear-bottom 96-well tissue culture plates at a density of 3000 cells per well. […] Cell count, nuclear size and DNA structure were also measured Hoechst 33342 (Life Technologies). Following staining of the HepG2 cells fluorescence was analyzed by image acquisition with a Thermo Fisher Cellomics® ArrayScanVTI High Content Screening Reader (ThermoFisher Scientific Inc., Waltham, Mass.) and vHCS™ view software (ThermoFisher Scientific Inc.). […]

[1] = system: experimental autoimmune encephalomyelitis (EAE); experiment: Relapsing-progressive experimental autoimmune encephalomyelitis (EAE) in ABH mice; assay type: in vivo, mouse
Procedure: ABH mice were injected with 1 mg mouse spinal cord homogenate in Freund's adjuvant on days 0 and 7 post-induction to induce EAE and this was repeated on day 28 post-induction to induce a relapse.
Animals were monitored for the development of clinical disease and the results in FIG. 1 represent the mean daily clinical score after induction of relapse.
Mice were injected subcutaneously (s.c.) with 1 mg freeze-dried mouse spinal cord homogenate (SCH) in Freunds adjuvant on day zero and seven as described previously (Al-Izki et al, 2012a). After the initial paralytic disease and subsequent remission, a relapse was induced by a further injection of SCH in Freunds incomplete adjuvant on day 28 to induce a relapse 7 days later (Al-Izki et al, 2012a). Studies were randomised, blinded and powered as described previously (Al-Izki et al, 2012a). Neurological scores were graded as 0=normal; 1=limp tail, 2=impaired righting reflex, 3=hindlimb paresis, 4=complete hindlimb paralysis, and 5=moribund/death (Al-Izki et al, 2012a). Results are expressed as mean±SEM maximum or minimum neurological score and mean day of onset±SD. Differences between groups were assessed using Mann Whitney U statistics (Al-Izki et al, 2012a). Motor control and co-ordination was assessed on an accelerating (4-40 rpm, accelerating at 6 rpm/25 s) RotaRod (ENV-575M, Med Associates Inc, St. Albans, Vt., USA) as described previously (Al-Izki et al, 2012a). This was performed one day before induction of relapse and at the termination of the experiment on day 45. RotaRod assessment was performed blinded to treatment. Animals were randomised to vehicle or treatment based on their RotaRod scores. Results are expressed as mean±SEM time that animals maintained rotarod activity. Differences between groups were assessed using Students t test, incorporating a test for equality of variance and normality (Al-Izki et al, 2012a). At the end of the experiment the spinal cord was removed and an enzyme linked immunosorbent assay (ELISA) for heavy chain neurofilament on spinal cord was performed and total nerve content of each spinal cord was estimated following calibration against neurofilament protein standards as described previously (Jackson et al, 2005); (Al-Izki et al, 2012a).
Neurofilament level as a correlate of spinal cord axonal content was determined as followed. Spinal cords were collected from the spinal columns of untreated (n=11) and Compound 11 mg/kg treated (n=13) animals at the second remission phase of disease post relapse at day 45 post disease induction. Tissues snap frozen and stored at −80° C. prior to homogenisation. Tissues were homogenised in a glass homogeniser in 1 ml/100 mg of spinal cord tissue wet weight homogenisation buffer (0.2 mM PMSF, 1 mM EDTA, 1 mM EGTA, 4M Urea, 10 mM Tris-HCl Sigma UK, pH 7.2,) plus 1:100 HALT protease inhibitor cocktail (Thermo Fisher, UK) and further homogenised by sonication twice for 10 seconds (Cole-Parmer Instruments, USA). Samples were spun down at 13,000 rpm in a bench top centrifuge (Eppendorf, UK) and the supernatant was collected and stored at −80° C. prior to neurofilament determination. Samples were thawed on ice and an enzyme linked immunosorbent assay for heavy chain neurofilament was performed. Briefly, a 96 well plate was coated overnight at 4° C. with capture antibody (1:5000 SMI-35 anti-neurofilament H. Covance Inc. Cambridge Bioscience, Cambridge, UK) in coating buffer (0.15M Na2CO3, 0.35M NaHCO3, Sigma, UK, pH 9.6. Following one wash in wash buffer (150 mM NaCl, 10 mM Tris-HCl, 0.1% Tween 20, Sigma, UK pH 7.5), non-specific binding was blocked by incubation with 5% bovine serum albumin (Sigma, UK) in wash buffer for 1 hour at room temperature. Following a wash step, samples and standards (Porcine neurofilament heavy chain, Chemicon International, UK) were diluted in wash buffer with 1% bovine serum albumin and incubated on the plate for 1 hour at room temperature. […]

Structure (SMILES): CC[C@@H]1NC(=O)[C@H]([C@H](O)[C@H](C)C/C=C/CCC[n+]2cccc3ccccc32)N(C)C(=O)[C@H](C(C)C)N(C)C(=O)[C@H](CC(C)C)N(C)C(=O)[C@H](CC(C)C)N(C)C(=O)[C@@H](C)NC(=O)[C@H](C)NC(=O)[C@H](CC(C)C)N(C)C(=O)[C@H](C(C)C)NC(=O)[C@H](CC(C)C)N(C)C(=O)CN(C)C1=O [Compound 1, [Gly-(1S,2R,E)-8-quinolinium-1-hydroxy-2-methyloct-4-ene]^1 CsA]
- toxicity (cell health markers) compared with unmodified CsA (HepG2 cells): significantly reduced the toxicity of cyclosporin
- mean daily clinical score after induction of relapse ([1]; 1 mg/kg i.p. daily from day 33): inhibits the accumulation of neurological deficit; also recorded: has neuroprotective properties
- loss of axons within the spinal cord ([1]; 1 mg/kg i.p., vs vehicle): lost significantly (P<0.01) less nerves (FIG. 7B) and axons
- loss of motor co-ordination ([1]; 1 mg/kg i.p., vs vehicle): significantly (P<0.001) less loss of motor co-ordination
- loss of nerves within the spinal cord (neurofilament ELISA) ([1]; 1 mg/kg i.p., vs vehicle): lost significantly (P<0.01) less nerves
- rotarod activity (time on accelerating rotarod) ([1]; day 27, first remission, before treatment): 168.8 ± 21.8 s
- rotarod activity (time on accelerating rotarod) ([1]; second remission after relapse (day 45), 1 mg/kg i.p.): 135.0 ± 42.9 s
